Assays:
[1] = tested on: VLPs coated with VSV envelope protein; assay type: biochemical, Ebola virus
[2] = tested on: lentiviruses coding EGFP and coated with FuG-C hybrid envelope protein; assay type: cell-based
[3] = tested on: VLPs coated with Marburg virus envelope protein; assay type: biochemical, Ebola virus
equine erythrocytes = conditions: pH 7.4
human erythrocytes = conditions: pH 7.4

Substance | virolytic activity on enzymatic VLPs [1] | concentrations that effectively block the virus entry [2] | inhibitory effect on lentivirus infectivity [2] | virolytic activity on enzymatic VLPs [3] | hemolytic activity (equine erythrocytes) | hemolytic activity (human erythrocytes) | amount of produced GFP (GFP fluorescence of cell lysates) [2]
GALA | moderate virolytic activity | above 5 μM | remarkably potent inhibitor | moderate virolytic activity | – | – | –
Hecate | – | – | substantial antiviral effect | – | virtually no effect on equine RBCs | moderately lyse human erythrocytes | –
WEAKLAKALAKALAKHLAKALAKALKACEA | – | – | substantial antiviral effect | – | moderate hemolytic activity | moderate hemolytic activity | might slightly increase the amount of produced GFP but the increase is not significant

Source: PMC7115697 (Peptides, 2016)
